Measurements published in patent publication US11312713B2, “Imidazo[4,5-C]quinoline derivatives as LRRK2 inhibitors” (Pfizer Inc., priority 2017, dated 2022).

How the values were obtained:
[1] = biological target: LRRK2, WT (GST-tagged truncated LRRK2) (Homo sapiens, UniProt Q5S007); test: LRRK2 kinase assay (LanthaScreen), wild type; assay type: biochemical; settings: wild type LRRK2; LanthaScreen, LRRKtide substrate
Experimental: (§1) LRRK2 kinase activity was measured using Lantha Screen technology from Invitrogen. GST-tagged truncated LRRK2 from Invitrogen (Cat #PV4874) was incubated with a fluorescein-labeled peptide substrate based upon ezrin/radixin/moesin (ERM), also known as LRRKtide (Invitrogen cat #PR8976A), in the presence of a dose response of compound. Upon completion, the assay was stopped and detected with a terbium labeled anti-phospho-ERM antibody (Invitrogen, cat #PR8975A). […] Using Echo acoustic dispensing, 60 nL of compound was transferred to a low volume Corning 384-well assay plate. 3 μL of a working solution of substrate (200 nM LRRKtide, 2 mM ATP) prepared in assay buffer (50 mM HEPES, pH 7.5, 3 mM MgCl2, with 2 mM DTT and 0.01% Brij35 added fresh) was added to the 60 nL compound assay plate. The kinase reaction was started with 3 μL of a working solution of LRRK2 enzyme at a concentration of 4 μg/m L. The final reaction concentrations were 100 nM LRRKtide, 1 mM ATP, 2 μg/mL LRRK2 enzyme and a compound dose response with a top dose of 3 μM. The reaction was allowed to progress at room temperature for 30 minutes and then stopped with the addition of 6 μL of detection buffer (20 mM Tris pH 7.6, 0.01% NP-40, 6 mM EDTA with 2 nM terbium labeled antiphospho-ERM). […] All final concentrations of substrate ATP and enzyme were the same.

mutant G2019S LRRK2 = mutant G2019S LRRK2 (Homo sapiens (Human), UniProt Q5S007, G2019S); test: LRRK2 kinase assay (LanthaScreen), G2019S mutant; assay type: biochemical; settings: G2019S mutant LRRK2; LanthaScreen, LRRKtide substrate; read-out: LRRK2, G2019S IC50
Sequence of mutant G2019S LRRK2 (Q5S007 whole entry G2019S): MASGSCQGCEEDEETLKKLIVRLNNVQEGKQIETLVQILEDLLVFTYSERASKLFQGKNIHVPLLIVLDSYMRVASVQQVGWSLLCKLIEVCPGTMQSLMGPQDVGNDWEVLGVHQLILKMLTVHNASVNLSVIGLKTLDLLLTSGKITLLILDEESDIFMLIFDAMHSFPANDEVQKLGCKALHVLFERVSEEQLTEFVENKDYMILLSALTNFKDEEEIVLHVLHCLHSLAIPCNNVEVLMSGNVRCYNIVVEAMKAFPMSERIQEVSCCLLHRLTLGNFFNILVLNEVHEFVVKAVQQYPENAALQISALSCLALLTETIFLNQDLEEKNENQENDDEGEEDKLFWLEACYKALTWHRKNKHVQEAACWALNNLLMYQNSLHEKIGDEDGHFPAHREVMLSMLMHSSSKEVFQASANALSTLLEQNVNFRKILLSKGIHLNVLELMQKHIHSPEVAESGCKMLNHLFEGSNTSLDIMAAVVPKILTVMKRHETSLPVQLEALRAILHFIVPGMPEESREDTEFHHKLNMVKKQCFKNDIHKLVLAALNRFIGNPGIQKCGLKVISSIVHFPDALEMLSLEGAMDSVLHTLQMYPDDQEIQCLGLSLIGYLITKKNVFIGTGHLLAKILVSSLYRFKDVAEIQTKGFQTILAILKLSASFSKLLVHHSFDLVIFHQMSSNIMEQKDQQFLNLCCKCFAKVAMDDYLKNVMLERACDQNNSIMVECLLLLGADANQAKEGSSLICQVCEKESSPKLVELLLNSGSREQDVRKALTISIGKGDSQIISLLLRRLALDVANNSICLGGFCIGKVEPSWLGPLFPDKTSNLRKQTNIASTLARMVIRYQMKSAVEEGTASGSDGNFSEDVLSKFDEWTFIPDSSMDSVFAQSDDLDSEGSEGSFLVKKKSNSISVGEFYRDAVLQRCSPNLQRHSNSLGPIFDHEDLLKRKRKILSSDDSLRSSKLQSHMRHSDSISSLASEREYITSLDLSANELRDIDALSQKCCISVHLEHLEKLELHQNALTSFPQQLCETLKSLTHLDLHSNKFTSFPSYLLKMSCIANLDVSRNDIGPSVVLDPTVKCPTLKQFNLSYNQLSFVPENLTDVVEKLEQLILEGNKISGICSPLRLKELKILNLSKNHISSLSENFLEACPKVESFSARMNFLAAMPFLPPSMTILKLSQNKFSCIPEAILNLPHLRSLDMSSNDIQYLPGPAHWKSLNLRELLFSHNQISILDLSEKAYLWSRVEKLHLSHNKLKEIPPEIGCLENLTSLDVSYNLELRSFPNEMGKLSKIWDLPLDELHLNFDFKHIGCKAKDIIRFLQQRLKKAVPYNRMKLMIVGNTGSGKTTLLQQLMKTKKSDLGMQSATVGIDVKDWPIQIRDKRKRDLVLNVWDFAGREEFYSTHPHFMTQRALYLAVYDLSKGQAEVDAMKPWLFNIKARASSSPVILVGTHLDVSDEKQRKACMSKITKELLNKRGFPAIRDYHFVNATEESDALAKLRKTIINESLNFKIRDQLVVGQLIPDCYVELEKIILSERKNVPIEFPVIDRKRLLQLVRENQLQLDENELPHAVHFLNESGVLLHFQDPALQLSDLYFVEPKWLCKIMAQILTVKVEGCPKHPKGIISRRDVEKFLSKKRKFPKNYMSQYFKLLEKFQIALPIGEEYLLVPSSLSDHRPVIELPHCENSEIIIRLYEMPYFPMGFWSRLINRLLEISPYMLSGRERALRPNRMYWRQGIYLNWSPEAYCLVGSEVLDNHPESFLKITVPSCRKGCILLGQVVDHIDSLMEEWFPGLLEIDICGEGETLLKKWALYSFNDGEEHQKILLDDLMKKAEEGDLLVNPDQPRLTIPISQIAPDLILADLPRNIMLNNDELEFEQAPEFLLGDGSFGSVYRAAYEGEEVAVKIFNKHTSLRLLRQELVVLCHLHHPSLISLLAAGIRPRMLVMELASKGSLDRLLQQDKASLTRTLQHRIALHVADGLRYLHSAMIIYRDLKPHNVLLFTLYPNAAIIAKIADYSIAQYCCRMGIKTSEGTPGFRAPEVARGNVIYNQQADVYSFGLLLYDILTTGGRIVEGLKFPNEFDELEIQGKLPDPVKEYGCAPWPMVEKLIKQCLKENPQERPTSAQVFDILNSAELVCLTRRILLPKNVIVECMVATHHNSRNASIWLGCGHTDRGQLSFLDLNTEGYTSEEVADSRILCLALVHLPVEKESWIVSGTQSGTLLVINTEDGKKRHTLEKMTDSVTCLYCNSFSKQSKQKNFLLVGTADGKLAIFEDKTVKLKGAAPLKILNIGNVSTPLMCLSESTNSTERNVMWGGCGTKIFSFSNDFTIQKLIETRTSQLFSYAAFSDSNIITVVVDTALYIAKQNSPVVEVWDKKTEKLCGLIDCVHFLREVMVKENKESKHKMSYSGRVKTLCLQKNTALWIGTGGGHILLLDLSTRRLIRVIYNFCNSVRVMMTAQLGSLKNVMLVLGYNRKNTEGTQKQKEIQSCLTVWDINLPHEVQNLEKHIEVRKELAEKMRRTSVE
Experimental: as §1

IC50 [1] | IC50 (mutant G2019S LRRK2) | SMILES
5.06 nM | 1.11 nM | Cc1cnc(Cc2nc3cnc4ccc(Cl)cc4c3n2C2CN(C)CC2(F)F)cn1 (centres unmarked) [Example 50, 8-chloro-1-(4,4-difluoro-1-methylpyrrolidin-3-yl)-2-[(5-methylpyrazin-2-yl)methyl]-1H-imidazo[4,5-c]quinoline]
5.78 nM | 3.49 nM | Cc1cc(Cc2nc3cnc4ccc(Cl)cc4c3n2C2CN(C)CC2(F)F)no1 (centres unmarked) [Example 51, 8-chloro-1-(4,4-difluoro-1-methylpyrrolidin-3-yl)-2-[(5-methyl-1,2-oxazol-3-yl)methyl]-1H-imidazo[4,5-c]quinoline]
15.1 nM | 12.9 nM | Cc1cc(Cc2nc3cnc4ccc(Cl)cc4c3n2C2CN(C)CC2(F)F)no1 (centres unmarked) [Example 52, 8-chloro-1-(4,4-difluoro-1-methylpyrrolidin-3-yl)-2-[(5-methyl-1,2-oxazol-3-yl)methyl]-1H-imidazo[4,5-c]quinoline]
7.51 nM | 7.49 nM | COCc1cn(Cc2nc3cnc4ccc(F)cc4c3n2C2CN(C)CC2(F)F)nn1 (centres unmarked) [Example 53, 1-(4,4-difluoro-1-methylpyrrolidin-3-yl)-8-fluoro-2-{[4-(methoxymethyl)-1H-1,2,3-triazol-1-yl]methyl}-1H-imidazo[4,5-c]quinoline]
11.3 nM | 6.49 nM | COCc1cn(Cc2nc3cnc4ccc(Cl)cc4c3n2C2CCOCC2(F)F)nn1 (centres unmarked) [Example 55, 8-chloro-1-(3,3-difluorotetrahydro-2H-pyran-4-yl)-2-{[4-(methoxymethyl)-1H-1,2,3-triazol-1-yl]methyl}-1H-imidazo[4,5-c]quinoline]
6.46 nM | 6.48 nM | Cc1nc(Cc2nc3cnc4ccc(C#N)cc4c3n2[C@@H]2CCN(CC(F)(F)F)C2)no1 [Example 56, 2-[(5-methyl-1,2,4-oxadiazol-3-yl)methyl]-1-[(3R)-1-(2,2,2-trifluoroethyl)pyrrolidin-3-yl]-1H-imidazo[4,5-c]quinoline-8-carbonitrile]
7.43 nM | 5.4 nM | COc1cnn(Cc2nc3cnc4ccc(C#N)cc4c3n2[C@@H]2CCO[C@H](C)C2)c1 [Example 57, 2-[(4-methoxy-1H-pyrazol-1-yl)methyl]-1-[(2R,4R)-2-methyltetrahydro-2H-pyran-4-yl]-1H-imidazo[4,5-c]quinoline-8-carbonitrile]
5.35 nM | 3 nM | C[C@@H]1C[C@H](n2c(Cc3nccs3)nc3cnc4ccc(Cl)cc4c32)CCO1 [Example 58, 8-chloro-1-[(2R,4R)-2-methyltetrahydro-2H-pyran-4-yl]-2-(1,3-thiazol-2-ylmethyl)-1H-imidazo[4,5-c]quinoline]
6.6 nM | 8.16 nM | Cc1cc(Cc2nc3cnc4ccc(Cl)cc4c3n2C2CCOC(C(F)F)C2)no1 (stereo not drawn) [Example 59, 8-chloro-1-[cis-2-(difluoromethyl)tetrahydro-2H-pyran-4-yl]-2-[(5-methyl-1,2-oxazol-3-yl)methyl]-1H-imidazo[4,5-c]quinoline]
5.79 nM | 4.17 nM | C[C@@H]1C[C@H](n2c(Cc3nccs3)nc3cnc4ccc(C#N)cc4c32)CCO1 [Example 61, 1-[(2R,4R)-2-methyltetrahydro-2H-pyran-4-yl]-2-(1,3-thiazol-2-ylmethyl)-1H-imidazo[4,5-c]quinoline-8-carbonitrile]
5.78 nM | 6.5 nM | Cc1cn(Cc2nc3cnc4ccc(Cl)cc4c3n2[C@@H]2CCN(C)C2)nn1 [Example 62, 8-chloro-1-[(3R)-1-methylpyrrolidin-3-yl]-2-[(4-methyl-1H-1,2,3-triazol-1-yl)methyl]-1H-imidazo[4,5-c]quinoline]
6.96 nM | 3.04 nM | C[C@@H]1C[C@H](n2c(Cc3csnn3)nc3cnc4ccc(C(F)(F)F)cc4c32)CCO1 [Example 63, 1-[(2R,4R)-2-methyltetrahydro-2H-pyran-4-yl]-2-(1,2,3-thiadiazol-4-ylmethyl)-8-(trifluoromethyl)-1H-imidazo[4,5-c]quinoline]
9.8 nM | 6.87 nM | C[C@@H]1C[C@H](n2c(Cc3nccs3)nc3cnc4ccc(F)cc4c32)CCO1 [Example 64, 8-fluoro-1-[(2R,4R)-2-methyltetrahydro-2H-pyran-4-yl]-2-(1,3-thiazol-2-ylmethyl)-1H-imidazo[4,5-c]quinoline]
8.32 nM | 8.01 nM | C[C@@H]1C[C@H](n2c(Cn3cncn3)nc3cnc4ccc(C(F)(F)F)cc4c32)CCO1 [Example 66, 1-[(2R,4R)-2-methyltetrahydro-2H-pyran-4-yl]-2-(1H-1,2,4-triazol-1-ylmethyl)-8-(trifluoromethyl)-1H-imidazo[4,5-c]quinoline]
8.03 nM | 8.55 nM | Cc1cnc(Cc2nc3cnc4ccc(Cl)cc4c3n2[C@@H]2CCN(C)C2)cn1 [Example 67, 8-chloro-2-[(5-methylpyrazin-2-yl)methyl]-1-[(3R)-1-methylpyrrolidin-3-yl]-1H-imidazo[4,5-c]quinoline]
7.39 nM | 3.33 nM | C[C@@H]1C[C@H](n2c(Cc3cscn3)nc3cnc4ccc(C(F)(F)F)cc4c32)CCO1 [Example 69, 1-[(2R,4R)-2-methyltetrahydro-2H-pyran-4-yl]-2-(1,3-thiazol-4-ylmethyl)-8-(trifluoromethyl)-1H-imidazo[4,5-c]quinoline]
13.7 nM | 7.59 nM | Cc1nnc(Cc2nc3cnc4ccc(C(F)(F)F)cc4c3n2[C@@H]2CCO[C@H](C)C2)o1 [Example 70, 2-[(5-methyl-1,3,4-oxadiazol-2-yl)methyl]-1-[(2R,4R)-2-methyltetrahydro-2H-pyran-4-yl]-8-(trifluoromethyl)-1H-imidazo[4,5-c]quinoline]
13.7 nM | 11.9 nM | CC1(C)CC(n2c(Cn3cncn3)nc3cnc4ccc(Cl)cc4c32)CCO1 (centres unmarked) [Example 71, 8-chloro-1-(2,2-dimethyltetrahydro-2H-pyran-4-yl)-2-(1H-1,2,4-triazol-1-ylmethyl)-1H-imidazo[4,5-c]quinoline]
12.1 nM | 7.17 nM | COc1cnn(Cc2nc3cnc4ccc(Cl)cc4c3n2CC(C)(F)F)c1 [Example 72, 8-chloro-1-(2,2-difluoropropyl)-2-[(4-methoxy-1H-pyrazol-1-yl)methyl]-1H-imidazo[4,5-c]quinoline]
16.9 nM | 13 nM | C[C@@H]1C[C@H](n2c(Cc3cnc(C(F)(F)F)cn3)nc3cnc4ccc(F)cc4c32)CCO1 [Example 73, 8-fluoro-1-[(2R,4R)-2-methyltetrahydro-2H-pyran-4-yl]-2-{[5-(trifluoromethyl)pyrazin-2-yl]methyl}-1H-imidazo[4,5-c]quinoline]
26.1 nM | 13.5 nM | Cc1nnc(Cc2nc3cnc4ccc(C(F)(F)F)cc4c3n2[C@@H]2CCO[C@H](C)C2)s1 [Example 74, 1-[(2R,4R)-2-methyltetrahydro-2H-pyran-4-yl]-2-[(5-methyl-1,3,4-thiadiazol-2-yl)methyl]-8-(trifluoromethyl)-1H-imidazo[4,5-c]quinoline]
25.7 nM | 26.5 nM | Cc1nc(Cc2nc3cnc4ccc(Cl)cc4c3n2C2CCOCC2(F)F)no1 (centres unmarked) [Example 75]
17.3 nM | 12 nM | Cc1cc(Cc2nc3cnc4ccc(C(F)(F)F)cc4c3n2[C@@H]2CCO[C@H](C)C2)ncn1 [Example 76, 2-[(6-methylpyrimidin-4-yl)methyl]-1-[(2R,4R)-2-methyltetrahydro-2H-pyran-4-yl]-8-(trifluoromethyl)-1H-imidazo[4,5-c]quinoline]
25.8 nM | 13.2 nM | CC(C#N)Cc1nc2cnc3ccc(Cl)cc3c2n1[C@@H]1CCO[C@H](C)C1 (stereo partly drawn) [Example 78, 3-{8-chloro-1-[(2R,4R)-2-methyltetrahydro-2H-pyran-4-yl]-1H-imidazo[4,5-c]quinolin-2-yl}-2-methylpropanenitrile]
9.73 nM | 9.75 nM | Fc1ccc2ncc3nc(Cc4csnn4)n(C4CCC(F)C4)c3c2c1 (stereo not drawn) [Example 79, 8-fluoro-1-[cis-3-fluorocyclopentyl]-2-(1,2,3-thiadiazol-4-ylmethyl)-1H-imidazo[4,5-c]quinoline]
9.4 nM | 11.3 nM | C[C@@H]1C[C@H](n2c(CCC#N)nc3cnc4ccc(Cl)cc4c32)CCO1 [Example 80, 3-{8-chloro-1-[(2R,4R)-2-methyltetrahydro-2H-pyran-4-yl]-1H-imidazo[4,5-c]quinolin-2-yl}propanenitrile]
16.9 nM | 7.5 nM | Cc1nnn(Cc2nc3cnc4ccc(C(F)(F)F)cc4c3n2[C@@H]2CCO[C@H](C)C2)n1 [Example 81, 1-[(2R,4R)-2-methyltetrahydro-2H-pyran-4-yl]-2-[(5-methyl-2H-tetrazol-2-yl)methyl]-8-(trifluoromethyl)-1H-imidazo[4,5-c]quinoline]

SMILES | IC50 [1] | IC50 (mutant G2019S LRRK2)
Cc1cn(Cc2nc3cnc4ccc(Cl)cc4c3n2C2CN(C)CC2(F)F)nn1 (centres unmarked) [Example 82, 8-chloro-1-(4,4-difluoro-1-methylpyrrolidin-3-yl)-2-[(4-methyl-1H-1,2,3-triazol-1-yl)methyl]-1H-imidazo[4,5-c]quinoline] | 6.33 nM | 4.64 nM
